Data set [1] relates to N2a/eGFPLuc cells. Kind of data set: eGFP knock out efficiency of Cas9 mRNA/sgGFP1 polyplexes by flow cytometry. Format: cell-based, murine. Conditions: after 72 h. The method, then: For Cas9 mRNA/sgRNA polyplexes, CleanCap® Cas9 mRNA (5moU) (Trilink Biotechnologies, San Diego, CA, USA) and sgRNA at a fixed weight ratio of 1:1 were mixed and diluted in HBG.
Calculated amounts of aminolipid at indicated N/P (nitrogen/phosphate) ratios (see above) were diluted in separate tubes of HBG. Equal volumes of nucleic acid solution and aminolipid solution were mixed by rapid pipetting and incubated 40 min at RT in a closed Eppendorf reaction tube.
Cas9 mRNA/sgRNA polyplex treatments were performed in triplicate in 96-well plates. N2a eGPFLuc cells were seeded 24 h prior to transfection (5000 cells/well). On the next day, the medium was replaced with 80 μL of fresh pre-warmed medium containing 10% (v/v) FBS. The nanoparticles were prepared as described above, and the volumes of 20, 10, and 5 μL of polyplex solution (2.5 μg/mL Cas9 mRNA and 2.5 μg/mL sgGFP1) were added. 20 μL HBG buffer per well was used as negative control. After 24 h of treatment, the cells were expanded, and the medium was replaced by 100 μL of fresh pre-warmed medium and incubated for additional 48 h. […] Only isolated viable cells were evaluated. The eGFP knock out efficiency was determined as the percentage of eGFP negative cells normalized to the control measurements with HBG buffer-treated cells.

Data set [2] in a line: Particle size, polydispersity and zeta potential measurement (DLS, ELS). Further details: Zeta / Size: unit not given here. Format: physicochemical. The protocol: 6.6 Particle Size and Zeta Potential Measurement for pDNA, mRNA, siRNA, Cas9 mRNA/sgRNA and Cas9 mRNA/sgRNA/ssDNA Polyplexes as Well as mRNA LNPs
Measurements of size and zeta potential were performed with a Zetasizer Nano ZS (Malvern Instruments, Malvern, Worcestershire, U.K.) in a folded capillary cell (DTS1070) by dynamic and electrophoretic laser-light scattering (DLS, ELS). […] Samples were measured three times with six sub runs per measurement. For measurement of the zeta potential, all samples were diluted to 800 μL with HBG or HEPES (for siRNA polyplexes) directly before measurement. Parameters were identical to the size measurement apart from an equilibration time of 60 sec. Three measurements with 15 sub runs lasting 10 sec each were performed, and zeta potentials were calculated by the Smuchowski equation.

The subject of data set [3] is Huh7 cells. Kind of data set: Luciferase expression assay of pDNA polyplexes in Huh7 cells. In kind it is cell-based, human.
Data set [4] deals with N2a tumor-bearing A/J mice. Kind of data set: Ex vivo luciferase expression after intravenous injection of mRNA polyplexes. Conditions: tumors, lungs, liver, spleen. Format: in vivo.
Experimental: Neuro2a cells (10^6 cells/150 μL PBS) were inoculated subcutaneously into the left flank of 6-week-old female A/J mice (Envigo RMS GmbH, Dusseldorf, Germany). Mice were randomly divided into groups of three (in the case of mRNA LNPs) or five (in the case of mRNA polyplexes) and were housed in isolated ventilated cages under specific pathogen free conditions with a 12 h day/night interval, and food and water ad libitum. Weight and general well-being were monitored continuously. Tumor size was measured with a caliper and determined by formula: a*b^2/2 (a=longest side of the tumor; b=widest side vertical to a). When tumors reached a size of 250-500 mm3, the experiments were performed by intravenous tail vein injection of polyplexes or LNPs formed as described in 6.1 and 6.3, containing 1 μg, 3 μg or 10 μg of stabilized firefly luciferase encoding mRNA (CleanCap™ FLuc mRNA (5moU); Trilink Biotechnologies, San Diego, CA, USA) in 150 μL HBG. Polyplexes containing 10 μg mRNA were dialyzed for 1 h at 4° C. against HBG (dialysis membrane MWCO 100-500 Da; Spectra/Por®, Carl Roth, Karlsruhe, Germany) prior to application to remove small amounts of ethanol. […] The luciferase gene expression was determined as described above and is presented as relative light units (RLU) per gram (g) tumor/organ.
To evaluate luciferase mRNA delivery by an ex vivo luciferase gene expression assay, organ and tumor tissues were homogenized in Luciferase Cell Culture Lysis Reagent 1× (Promega, Mannheim, Germany), supplemented with 1% (v/v) protease and phosphatase inhibitor cocktail (Sigma-Aldrich, Munich, Germany) using a tissue and cell homogenizer (FastPrep®-24, MP Biomedicals, USA). […] Luciferase activity in 25 μL supernatant was measured in a Centro LB 960 plate reader luminometer (Berthold Technologies, Bad Wildbad, Germany) for 10 sec after addition of 100 μL/well of a LAR buffer solution (20 mM glycylglycine, 1.0 mM MgCl2, 0.10 mM EDTA, 3.3 mM DTT, 0.55 mM ATP, and 0.27 mM coenzyme A; pH 8-8.5) supplemented with 5% (v/v) of a mixture of 10 mM luciferin and 29 mM glycylglycine.
In data set [5] the test system is KB, U87, and HCT116 cells. The note with it: 10 ng poly(I:C) per well, 48 h, especially in KB cells.
Experimental: The cytotoxic effect of double-stranded RNA (poly(I:C)) was evaluated in cancer cells using LAF carriers 1611, 1719, and 1752. The toxicity induced by poly(I:C) and carriers were differentiated by using non-toxic single-stranded poly(I). LPEI and the LAF-Stp carriers were transfected in medium supplemented with 10% (v/v) FBS. In the case of lipofectamine, particles were prepared and transfected according to the manufacturer's protocol (particle formation as well as transfection in serum-free medium; ThermoFisher). At 4 h after lipofectamine transfection, medium was replaced with fresh medium supplemented with 10% (v/v) FBS followed by incubation of 48 h in total. The percentage of cell survival was calculated relative to the HBG buffer-treated control cells (n=3, mean+SD).
For data set [6], the system named is N2a/eGFPLuc, DU145/eGFPLuc, and KB/eGFPLuc. Nature of the data set: Gene silencing activity of siRNA polyplexes in three cell lines. In kind it is cell-based, murine, human. The note with it: N/P 18, 15.6 ng siRNA/well, 48 h.
Data set [7] deals with N2a cells. Nature of the data set: Co-delivery efficiency of mRNA/pDNA polyplexes by flow cytometry. Format: cell-based, murine. Conditions: N/P 18, 25 and 50 ng combined nucleic acid/well. The protocol:
CleanCap® mCherry mRNA (5moU) (Trilink Biotechnologies, San Diego, CA, USA) and pEGFP-N1 pDNA (Clontech Laboratories, Inc. (now Takara Bio USA, Inc., San Jose, CA, USA)) at a fixed weight ratio of 1:1 were mixed and diluted in HBG. Calculated amounts of aminolipid at indicated N/P (nitrogen/phosphate) ratios (see above) were diluted in separate tubes of HBG. Equal volumes of nucleic acid solution and aminolipid solution were mixed by rapid pipetting and incubated 40 min at RT in a closed Eppendorf reaction tube. The final concentration of nucleic acid in the polyplex solution was 5 μg/mL (2.5 μg/mL mCherry mRNA plus 2.5 μg/mL pEGFP-N1 pDNA).
mRNA/pDNA polyplex treatments were performed in triplicate in 96-well plates. N2a cells were seeded 24 h prior to transfection (10,000 cells/well). On the next day, the medium was replaced with 80 μL of fresh pre-warmed medium containing 10% (v/v) FBS. The nanoparticles were prepared as described above, and the volumes of 10 and 5 μL of polyplex solution (2.5 μg/mL mCherry mRNA and 2.5 μg/mL pEGFP-N1 pDNA) were added. 20 μL HBG buffer per well was used as negative control. After 24 h of treatment, cells were collected and re-suspended in PBS solution containing 10% (v/v) FBS (FACS buffer) for flow cytometric evaluation. All samples were analyzed by flow cytometry using a CytoFLEX S Flow Cytometer (Beckman Coulter, Brea, CA, USA). Shortly before the measurement, 1 ng/μL 4′, 6-diamidino-2-phenylindole (DAPI) was added and used to discriminate between viable and dead cells. The cellular fluorescence was assayed by excitation of DAPI at 405 nm and detection of emission at 450 nm. Only isolated viable cells were evaluated. Gates were set compared to control measurements with HBG buffer-treated cells. […] Flow cytometry data were analyzed using FlowJo™ v10.8 flow cytometric analysis software by FlowJo, LLC (Becton, Dickinson and Company, U.S.). The cellular fluorescence expression was assayed by excitation at 561 nm and 488 nm, the detection of emission at 610 nm and 530 nm for mCherry and eGFP, respectively.

[8] abbreviates: mRNA polyplexes, 12.5 μg/mL CleanCap FLuc mRNA (5moU), N/P 12 (1611, 1719, 1722, 1732), N/P 24 (1614), N/P 18 (1621, 1747).
The mark [9] stands for this setting: Cas9 mRNA/sgDMDex23 polyplexes, N/P 24, combined nucleic acid 12.5 μg/mL.
[10] abbreviates: PEGylated pDNA polyplexes 25% PEG, 10 μg/mL pCMVLuc.
Setting [11] is: Targeted pDNA polyplexes 12.5% PEG 2k, 12.5% PEG-GE11, 10 μg/mL pCMVLuc.
Setting [12] is: Unmodified pDNA polyplexes 0%, 10 μg/mL pCMVLuc.
Where [13] appears, read: dialyzed mRNA polyplexes for in vivo application, 66.7 μg/mL mRNA, 1611 N/P 18, 1719 N/P 12.
Where [14] appears, read: pDNA polyplexes, N/P 12, 10 μg/mL pCMVLuc.
The mark [15] stands for this setting: poly(I) polyplexes, 12.5 μg/mL, 1611 N/P 18, 1719 N/P 12, 1752 N/P 24.
Where [16] appears, read: poly(I:C) polyplexes, 12.5 μg/mL, 1611 N/P 18, 1719 N/P 12, 1752 N/P 24.
[17] abbreviates: mRNA LNPs, 12.5 μg/mL CleanCap FLuc mRNA (5moU), N/P 9, molar ratios see Table A.

In the case of K(8Oc)2-Stp2-K[K(8Oc)2] [compound 1732], the “eGFP knock-out efficiency of Cas9 mRNA/sgRNA polyplexes” value in data set [1] is listed as “good knock-out efficiency”. Further, in data set [2] (setting [8]), the Pdl is recorded as 0.304, the Z-average was determined as 98.2 nm and the Zeta potential worked out at 26.2 mV.
As for “[K(12Oc)]2-Stp2-[K(12Oc)]2 [compound 1719]”, the Pdl in data set [2] (setting [9]) is given as 0.268; in data set [2] (setting [10]), 0.13; in data set [2] (setting [11]), 0.13; in data set [2] (setting [12]) it was 0.09; in data set [2] (setting [13]) it was 0.176 ± 0.016; in data set [2] (setting [8]), 0.225. Further, the Pdl in data set [2] (setting [14]) is 0.220 ± 0.001; in data set [2] (setting [15]), 0.32 ± 0.08; in data set [2] (setting [16]), 0.25 ± 0.05. Besides, the Z-average is on record as 80.8 nm in data set [2] (setting [9]); 75.0 nm in data set [2] (setting [8]); 110.4 ± 1.89 nm in data set [2] (setting [14]); 86.8 ± 11.4 nm in data set [2] (setting [15]); 95.9 ± 2.1 nm in data set [2] (setting [16]). The Zeta potential in data set [2] (setting [9]) was 42.6 mV; in data set [2] (setting [13]), 30.7 ± 1.7 mV; in data set [2] (setting [8]), 33.0 mV; in data set [2] (setting [14]), 13.0 ± 0.5 mV; in data set [2] (setting [15]), 23.2 ± 0.4 mV; in data set [2] (setting [16]), 13.8 ± 2.9 mV. Also, the figures for the Size in data set [2] (setting [10]), in data set [2] (setting [11]) and in data set [2] (setting [12]) were 76, 88 and 77, respectively. In addition, the Zeta in data set [2] (setting [10]) is 10.5; in data set [2] (setting [11]) it was 10.5; in data set [2] (setting [12]), 29.5. For the same substance, the “RLU values of targeted polyplexes in comparison to shielded polyplexes” value came to 6.5 fold in data set [3] (N/P 12, pDNA dose 50 ng/well) and 4.4 fold in data set [3] (N/P 12, pDNA dose 100 ng/well). Moreover, the “in vivo luciferase expression of mRNA polyplexes” value in data set [4] is listed as “great in vivo performance”. Also, in data set [5], the “cell viability after poly(I:C) polyplex treatment” value is listed as “significant decrease in the cell viability”.
Take “K(12Oc)2-Stp-K[K(12Oc)2] [compound 1716]”: in data set [2] (setting [17]), the Pdl was 0.150, the Z-average is 200.9 nm and the Zeta potential is listed as −0.25 mV. Further, the “gene silencing efficiency of siRNA polyplexes in three cell lines” value in data set [6] is listed as “great performance in all three tested cell lines”. Also, the “mCherry mRNA/eGFP pDNA co-expression (co-delivery efficiency)” value in data set [7] is recorded as “most potent structures”.

For the origin of these results see patent US20260159854A1, “NOVEL CARRIERS FOR NUCLEIC ACID AND/OR PROTEIN DELIVERY” (LUDWIG-MAXIMILIANS-UNIVERSITÄT MÜNCHEN, priority 2022, published 2026).
